Reference: PubChem BioAssay AID2060627 (Molecular Pharmacology Branch, DTP, NCI, 2025)

Tested on: 156681-154-R-J1-PDC complex spheroid viability
Test: Anticancer human tumor 156681-154-R-J1-PDC patient-derived melanoma cell line growth inhibition [CLK]
Settings: for IC50: curve of first compound; for viability, T/C: stronger effect = lower value
Procedure, shortened: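 Multi-cell-type spheroids combined patient-derived tumor cells with HUVEC endothelial cells and human mesenchymal stem cells. Paired agents were dosed in half-log steps down from about clinical Cmax, or from 10 microM where Cmax was unknown.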

[1] = second compound 0.0316 µM, first compound 0.0316 µM
[2] = second compound 0.0316 µM, first compound 0.1 µM
[3] = second compound 0.0316 µM, first compound 0.316 µM
[4] = second compound 0.0316 µM, first compound 1 µM
[5] = second compound 0.0316 µM, first compound 3.16 µM
[6] = second compound 0.0316 µM, first compound 10 µM
[7] = second compound 0.1 µM, first compound 0.0316 µM
[8] = second compound 0.1 µM, first compound 0.1 µM
[9] = second compound 0.1 µM, first compound 0.316 µM
[10] = second compound 0.1 µM, first compound 1 µM
[11] = second compound 0.1 µM, first compound 3.16 µM
[12] = second compound 0.1 µM, first compound 10 µM
[13] = second compound 0.316 µM, first compound 0.0316 µM
[14] = second compound 0.316 µM, first compound 0.1 µM
[15] = second compound 0.316 µM, first compound 0.316 µM
[16] = second compound 0.316 µM, first compound 1 µM
[17] = second compound 0.316 µM, first compound 3.16 µM
[18] = second compound 0.316 µM, first compound 10 µM
[19] = second compound 1 µM, first compound 0.0316 µM
[20] = second compound 1 µM, first compound 0.1 µM
[21] = second compound 1 µM, first compound 0.316 µM
[22] = second compound 1 µM, first compound 1 µM
[23] = second compound 1 µM, first compound 3.16 µM
[24] = second compound 1 µM, first compound 10 µM
[25] = second compound 3.16 µM, first compound 0.0316 µM
[26] = second compound 3.16 µM, first compound 0.1 µM
[27] = second compound 3.16 µM, first compound 0.316 µM
[28] = second compound 3.16 µM, first compound 1 µM
[29] = second compound 3.16 µM, first compound 3.16 µM
[30] = second compound 3.16 µM, first compound 10 µM
[31] = second compound 10 µM, first compound 0.0316 µM
[32] = second compound 10 µM, first compound 0.1 µM
[33] = second compound 10 µM, first compound 0.316 µM
[34] = second compound 10 µM, first compound 1 µM
[35] = second compound 10 µM, first compound 3.16 µM
[36] = second compound 10 µM, first compound 10 µM
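Note: spheroids exposed to the agents for seven days.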
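Throughout, for viability, T/C: 100% = DMSO vehicle control viability.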

C=CC(=O)N1CCN(c2nc(=O)n(-c3c(C)ccnc3C(C)C)c3nc(-c4c(O)cccc4F)c(F)cc23)C(C)C1 (stereo unspecified) + CN1CCN(c2cc(C(=O)Nc3cc4cc(-c5cnn(C)c5)ccc4cn3)ccn2)CC1
IC50 (second compound 0.0316 µM): > 10000 nM
IC50 (second compound 0.1 µM): > 10000 nM
IC50 (second compound 0.316 µM): < 31.6 nM
IC50 (second compound 1 µM): < 31.6 nM
IC50 (second compound 3.16 µM): < 31.6 nM
IC50 (second compound 10 µM): < 31.6 nM
viability, T/C [1]: 97.3%
viability, T/C [2]: 88%
viability, T/C [3]: 112%
viability, T/C [4]: 129%
viability, T/C [5]: 118%
viability, T/C [6]: 97.9%
viability, T/C [7]: 95.6%
viability, T/C [8]: 78.6%
viability, T/C [9]: 101%
viability, T/C [10]: 99.9%
viability, T/C [11]: 119%
viability, T/C [12]: 100%
viability, T/C [13]: 28.5%
viability, T/C [14]: 27.9%
viability, T/C [15]: 23.8%
viability, T/C [16]: 30%
viability, T/C [17]: 29.6%
viability, T/C [18]: 10.9%
viability, T/C [19]: 0.18%
viability, T/C [20]: 3.34%
viability, T/C [21]: 0.25%
viability, T/C [22]: 0.17%
viability, T/C [23]: 2%
viability, T/C [24]: 0.82%
viability, T/C [25]: 0.77%
viability, T/C [26]: 0.21%
viability, T/C [27]: 0.12%
viability, T/C [28]: 0.11%
viability, T/C [29]: 2.22%
viability, T/C [30]: 3.15%
viability, T/C [31]: 0.12%
viability, T/C [32]: 0.14%
viability, T/C [33]: 0.25%
viability, T/C [34]: 0.17%
viability, T/C [35]: 1.47%
viability, T/C [36]: 0.3%

Nc1ccn(C2OC(CO)C(O)C2(F)F)c(=O)n1 (stereo unspecified) + CN1CCN(c2cc(C(=O)Nc3cc4cc(-c5cnn(C)c5)ccc4cn3)ccn2)CC1
IC50 (second compound 0.0316 µM): < 31.6 nM
IC50 (second compound 0.1 µM): < 31.6 nM
IC50 (second compound 0.316 µM): < 31.6 nM
IC50 (second compound 1 µM): < 31.6 nM
IC50 (second compound 3.16 µM): < 31.6 nM
IC50 (second compound 10 µM): < 31.6 nM
viability, T/C [1]: 16.4%
viability, T/C [2]: 16.1%
viability, T/C [3]: 20.3%
viability, T/C [4]: 14.8%
viability, T/C [5]: 12%
viability, T/C [6]: 16.9%
viability, T/C [7]: 19%
viability, T/C [8]: 13.4%
viability, T/C [9]: 12.9%
viability, T/C [10]: 12.8%
viability, T/C [11]: 10.9%
viability, T/C [12]: 12.8%
viability, T/C [13]: 13.8%
viability, T/C [14]: 14%
viability, T/C [15]: 10.1%
viability, T/C [16]: 11.7%
viability, T/C [17]: 16.5%
viability, T/C [18]: 9.83%
viability, T/C [19]: 0.16%
viability, T/C [20]: 0.82%
viability, T/C [21]: 0.37%
viability, T/C [22]: 1.65%
viability, T/C [23]: 0.78%
viability, T/C [24]: 1.59%
viability, T/C [25]: 0.16%
viability, T/C [26]: 1.54%
viability, T/C [27]: 0.42%
viability, T/C [28]: 0.1%
viability, T/C [29]: 4.55%
viability, T/C [30]: 0.67%
viability, T/C [31]: 0.15%
viability, T/C [32]: 2.7%
viability, T/C [33]: 0.29%
viability, T/C [34]: 4.06%
viability, T/C [35]: 1.19%
viability, T/C [36]: 2.59%

COc1cccc2c1C(=O)c1c(O)c3c(c(O)c1C2=O)CC(O)(C(=O)CO)CC3OC1CC(N)C(O)C(C)O1 (stereo unspecified) + CN1CCN(c2cc(C(=O)Nc3cc4cc(-c5cnn(C)c5)ccc4cn3)ccn2)CC1
IC50 (second compound 0.0316 µM): < 31.6 nM
IC50 (second compound 0.1 µM): < 31.6 nM
IC50 (second compound 0.316 µM): < 31.6 nM
IC50 (second compound 1 µM): < 31.6 nM
IC50 (second compound 3.16 µM): < 31.6 nM
IC50 (second compound 10 µM): < 31.6 nM
viability, T/C [1]: 43.4%
viability, T/C [2]: 48.3%
viability, T/C [3]: 4.36%
viability, T/C [4]: 0.18%
viability, T/C [5]: 0.09%
viability, T/C [6]: 3.75%
viability, T/C [7]: 30.6%
viability, T/C [8]: 22.5%
viability, T/C [9]: 3.39%
viability, T/C [10]: 0.14%
viability, T/C [11]: 0.09%
viability, T/C [12]: 0.26%
viability, T/C [13]: 11.2%
viability, T/C [14]: 5.67%
viability, T/C [15]: 0.29%
viability, T/C [16]: 0.1%
viability, T/C [17]: 0.2%
viability, T/C [18]: 1.51%
viability, T/C [19]: 0.37%
viability, T/C [20]: 0.13%
viability, T/C [21]: 0.57%
viability, T/C [22]: 2.6%
viability, T/C [23]: 0.76%
viability, T/C [24]: 0.18%
viability, T/C [25]: 0.05%
viability, T/C [26]: 0.07%
viability, T/C [27]: 0.08%
viability, T/C [28]: 1.69%
viability, T/C [29]: 1.88%
viability, T/C [30]: 0.27%
viability, T/C [31]: 0.05%
viability, T/C [32]: 1.66%
viability, T/C [33]: 2.85%
viability, T/C [34]: 0.12%
viability, T/C [35]: 1.59%
viability, T/C [36]: 0.51%
